{"source": "patent US20040235922A1", "about": "“Compositions and methods for inducing adipose tissue cell death” (priority 2003, published 2004)", "assay_type_in_all_cases": "in vivo", "key": {"male and female ICR mice": {"test_system": "male and female ICR mice", "assay": "21 day oral (diet) treatment of mice: selected tissue weights, fat pads, BAT, muscle, organs (Example 1)", "conditions": "21 days; for Brown adipose tissue (BAT) mass compared to control/other treatments: 200 ppm clenbuterol in diet; for Brown adipose tissue (BAT) mass compared to control/other treatments / Rp and Epi/Par fat pad weights compared to control: p<0.05; for Rp and Epi/Par fat pad weights compared to control: 200 ppm clenbuterol, 800 ppm ractopamine in diet", "protocol": "The effects of clenbuterol, a β2-AR agonist, and ractopamine, a β1/β2-AR agonist, on growth, adiposity and adipose tissue apoptosis in male and female mice have been tested by feeding diets containing control, 200 ppm clenbuterol, or 200 or 800 ppm ractopamine. Food intake (FI) was measured daily; body weight (BW) and temperatures (BT) were measured on days 0, 3, 7, 10, 14, 17, and 20. On day 21 mice were sacrificed, body composition was determined using PIXImus densitometry, and muscle and adipose tissues were collected. There were no treatment effects on BT, FI, BW, feed efficiency or body composition. Retroperitoneal (Rp) and epididymal/parametrial (Epi/Par) fat pad masses were reduced in both 800 ppm ractopamine (40±3 and 207±20 mg, respectively) and clenbuterol (35±7 and 211±22 mg) treated mice compared to control (66±8 and 319±30 mg, p<0.05). Brown adipose tissue (BAT) mass was greater (p<0.05) in clenbuterol treated mice compared to other treatments. Adipose tissue apoptosis (% DNA fragmentation) was increased in Epi/Par fat pads in clenbuterol (5.2+1.1%) and 800 ppm ractopamine (4.1±0.8%) treated mice compared to control (1.7+0.4%, p<0.05).\nAnimals: Five week old male (n=20) and female (n=20) ICR mice (Harlan Research Laboratories, Indianapolis, Ind.) were allowed to acclimate for one week prior to the experiment start date. Animals were housed singly in suspended wire cages and were provided ground rodent chow (ProLab® RMH 2500; Purina Mills, St. Louis, Mo.) and water ad libitum. Ambient room temperature was maintained and the light/dark cycle was 0600/1800 hours, respectively. Animals were cared for in accordance with the Guide for the Care and Use of Laboratory Animals (Institute of Laboratory Animal Resources Commission on Life Sciences National Research Council. Guide for the Care and Use of Laboratory Animals. National Academy of Sciences, 1996). Prior to the start of the study, animals were briefly anesthetized with isofluorane and an IPPT-200 transponder (programmable ID and temperature, BMDS, Seaford, Del.) was implanted subcutaneously between the scapulae.\nMaterials: Test articles included clenbuterol (Sigma Chemical Company, St. Louis, Mo., item # C5423) and ractopamine hydrochloride—Paylean® 9 (Elanco Animal Health, Indianapolis, Ind.). Clenbuterol is available as a pure product, and ractopamine is readily available as a type A medicated article. Paylean® 9 contains about 20 g ractopamine hydrochloride per kilogram in a ground corncob base. In order to achieve doses of 200 and 800 ppm it was necessary to add about […] of product per kilogram of diet. Control and clenbuterol diets were prepared with about 80 g of alphacel, which is a diluent used to mimic the effect of the corncob in the ractopamine product. The dose of clenbuterol used in this experiment was similar to those used in previous experiments with mice (Agbenyega E T, and Wareham A C. Effect of clenbuterol on skeletal muscle atrophy in mice induced by the glucocorticoid dexamethasone. Comp Biochem Physiol Comp Physiol 1992;102:141-145, Rothwell N. J., and Stock M J. Modification of body composition by clenbuterol in normal and dystrophic (mdx) mice. Biosci Rep 1985;5:755-760, Hyltander A, Svaninger G, and Lundholm K. The effect of clenbuterol on body composition in spontaneously eating tumour-bearing mice. Biosci Rep 1993;13:325-331, Hayes A, and Williams DA. Long-term clenbuterol administration alters the isometric contractile properties of skeletal muscle from normal and dystrophin-deficient mdx mice. Clin Exp Pharmacol Physiol 1994;21:757-765, Dupont-Versteegden EE. Exercise and clenbuterol as strategies to decrease the progression of muscular dystrophy in mdx mice. J Appl Physiol 1996;80:734-741). […]"}, "serum leptin": {"test_system": "serum leptin", "assay": "Serum leptin concentration in WT and GDF-8 KO mice (Example 2)", "conditions": "200 ppm in diet", "protocol": "(§1) Animals: Twelve-week old male (n=10) and female (n=10) GDF-8 (−/−) knockout mice and male (n=10) and female (n=10) GDF-8 (+/+) WT mice were used in the study. GDF-8 knockout mice, which were derived from the 129/SvJ mouse strain, were originally obtained from MetaMorphix Inc. and were bred in-house for the study. Mice were housed singly in suspended wire cages in a room maintained at 22±1 C and with a 12:12 hour light/dark cycle. Mice were provided ground rodent chow (ProLab® RMH 2500; Purina Mills, St. Louis, Mo.) and water ad libitum. Mice were cared for in accordance with the Guide for the Care and Use of Laboratory Animals.\n(§2) Materials: Clenbuterol (Sigma Chemical Company, St. Louis, Mo., item# C5423), was thoroughly mixed into the ground rodent chow to provide a 200 ppm concentration.\n(§3) Daily Observations: Food intake was measured daily, and body weight was measured on days 0, 3, 7, 10, 14, 17, 20, and 21 at approximately 1430 h during the treatment period. At 15 weeks of age (day 21), a final body weight measurement was obtained approximately one hour prior to euthanasia, and mice were sacrificed by decapitation following CO2 asphyxiation."}, "[1]": {"assay": "Clenbuterol feeding for 21 days in WT and GDF-8 KO mice: body weight, weight gain, food intake, feed efficiency (Example 2)", "conditions": "200 ppm in diet", "protocol": "The effects of clenbuterol on muscularity and adiposity in male and female GDF-8 knockout (GDF-8 KO) (n=20) and wild type (WT) mice (n=20) were tested by feeding 0 or 200 ppm clenbuterol for 21 days. […] For all other variables, GDF-8 KO and WT mice responded similarly to clenbuterol.\nas §1, §2, §3\nStatistical Analysis: The study was analyzed as a 2×2×2 factorial design (N=5/cell). Analysis of variance (SAS) was used to determine significance of main effects of gender, genotype (WT vs. GDF-8 KO) and clenbuterol (0 vs. 200 ppm) and interactions. Statistically significant differences are defined at the 95% confidence interval.\nFeed efficiency was calculated as the total food intake (g)/cumulative weight gain (g). There was a trend (p=0.07) for clenbuterol to improve feed efficiency (g feed/g weight gain) (Table 3)."}, "[2]": {"conditions": "200 ppm in diet, male and female mice"}, "[3]": {"conditions": "WT and GDF-8 KO mice, main effect, Mean ± SEM"}}, "note": "Entries after “also recorded” stand apart in the source; their conditions may differ. Marks after values point to notes of the source that are not given here.", "data": [{"smiles": "CC(C)(C)NCC(O)c1cc(Cl)c(N)c(Cl)c1", "note": "(stereo not shown) [Clenbuterol, clenbuterol]", "values": [{"measurement": "Brown adipose tissue (BAT) mass compared to control/other treatments", "setting": "male and female ICR mice", "value": "increased BAT mass"}, {"measurement": "Brown adipose tissue (BAT) mass compared to control/other treatments", "setting": "male and female ICR mice; listed as clenbuterol", "value": "greater; also recorded: significantly increased"}, {"measurement": "Rp and Epi/Par fat pad weights compared to control", "setting": "male and female ICR mice", "value": "decreased mass of Rp and Epi/Par fat pads in females only"}, {"measurement": "Rp and Epi/Par fat pad weights compared to control", "setting": "male and female ICR mice; listed as clenbuterol", "value": "reduced"}, {"measurement": "BAT tissue weight, mean", "setting": "male and female ICR mice; [2]", "value": ".124"}, {"measurement": "Biceps tissue weight, mean", "setting": "male and female ICR mice; [2]", "value": ".145"}, {"measurement": "Epi/Par tissue weight, mean", "setting": "male and female ICR mice; [2]", "value": ".211"}, {"measurement": "Heart tissue weight, mean", "setting": "male and female ICR mice; [2]", "value": ".164"}, {"measurement": "Ing tissue weight, mean", "setting": "male and female ICR mice; [2]", "value": ".150"}, {"measurement": "Kidney tissue weight, mean", "setting": "male and female ICR mice; [2]", "value": ".582"}, {"measurement": "Liver tissue weight, mean", "setting": "male and female ICR mice; [2]", "value": 2.14}, {"measurement": "Rp tissue weight, mean", "setting": "male and female ICR mice; [2]", "value": ".035"}, {"measurement": "Retroperitoneal (Rp) fat pad mass", "setting": "male and female ICR mice; 200 ppm in diet, mice, control 66±8 mg", "value": "35 ± 7", "unit": "mg"}, {"measurement": "Epididymal/parametrial (Epi/Par) fat pad mass", "setting": "male and female ICR mice; 200 ppm in diet, mice, control 319±30 mg", "value": "211 ± 22", "unit": "mg"}, {"measurement": "Muscle mass / muscle weight, body protein or fat content", "setting": "male and female ICR mice; diet, ICR mice", "value": "no effect"}, {"measurement": "Par weight, mean", "setting": "male and female ICR mice; females, 200 ppm in diet", "value": ".18^b"}, {"measurement": "Epi weight, mean", "setting": "male and female ICR mice; males, 200 ppm in diet", "value": ".24^ab"}, {"measurement": "Effect on serum leptin concentrations", "setting": "serum leptin", "value": "did not significantly affect; also recorded: not affected"}, {"measurement": "Serum Leptin Concentration", "setting": "serum leptin; 20 days, Mean ± SEM", "value": "3.98 ± 0.49", "unit": "ng/mL"}, {"measurement": "Effect on final body weight (FBW)", "setting": "[1]", "value": "did not significantly affect"}, {"measurement": "Food Intake", "setting": "[1]; [3]", "value": "4.78 ± 0.16", "unit": "g/day"}, {"measurement": "Wt Gain", "setting": "[1]; [3]", "value": "0.165 ± 0.01", "unit": "g/day"}, {"measurement": "Feed Efficiency", "setting": "[1]; WT and GDF-8 KO mice, main effect, p = 0.07", "value": 34.4, "unit": "g feed/g wt gain"}, {"measurement": "Effect on food intake, body weight or body composition", "setting": "[1]; WT or GDF-8 KO mice", "value": "did not affect"}, {"measurement": "Final Body Wt", "setting": "[1]; female and male WT and GDF-8 KO mice, main effect, Mean ± SEM", "value": "29.9 ± 1.2", "unit": "g"}, {"measurement": "Feed efficiency in females compared to control", "setting": "[1]; female mice", "value": "no effect; also recorded: not in females"}, {"measurement": "Weight gain in females compared to control", "setting": "[1]; female mice", "value": "not in females"}, {"measurement": "Weight gain compared to control", "setting": "[1]; main effect, p<0.05", "value": "increased"}, {"measurement": "Feed efficiency in males compared to control", "setting": "[1]; male mice", "value": "more than doubled; also recorded: significantly improved"}, {"measurement": "More efficient (feed efficiency) compared to males fed control diet", "setting": "[1]; male mice", "value": "more than 250%"}, {"measurement": "Weight gain in males compared to control", "setting": "[1]; male mice", "value": "significantly increased; also recorded: twice as much"}]}]}
